From ChEMBL document CHEMBL2406981, “Novel pyrazoline amidoxime and their 1,2,4-oxadiazole analogues: synthesis and pharmacological screening” (Bioorg Med Chem Lett, 2013)
Values after ≈ are worked out from the molar mass of the structure shown.

Tested on: Escherichia coli
Assay: Antimicrobial activity against Escherichia coli MTCC 724 at 100 ug/ml after 24 hrs by agar disc diffusion method
Format: functional
Settings: MTCC 724, 24 h, read-out: DIZ

| Compound | zone of inhibition at 100 µg/mL |
| --- | --- |
| Clc1ccc(C2=NN(c3ccccc3)C(c3noc(-c4ccccc4)n3)C2)cc1 (stereo unspecified) | 10 mm |

Tested on: Aspergillus niger
Assay: Antimicrobial activity against Aspergillus niger MTCC 281
Format: functional
Settings: not given

| Compound | MIC |
| --- | --- |
| Clc1ccc(C2=NN(c3ccccc3)C(c3noc(-c4ccccc4)n3)C2)cc1 (stereo unspecified) | 15 µg/mL (≈ 37.4 µM) |

Tested on: Escherichia coli
Assay: Antimicrobial activity against Escherichia coli MTCC 724 at 50 ug/ml after 24 hrs by agar disc diffusion method
Format: functional
Settings: MTCC 724, 24 h, read-out: DIZ

| Compound | zone of inhibition at 50 µg/mL |
| --- | --- |
| Clc1ccc(C2=NN(c3ccccc3)C(c3noc(-c4ccccc4)n3)C2)cc1 (stereo unspecified) | 4 mm |

Tested on: Bacillus cereus
Assay: Antimicrobial activity against Bacillus cereus MTCC 8372
Format: functional
Settings: not given

| Compound | MIC |
| --- | --- |
| Clc1ccc(C2=NN(c3ccccc3)C(c3noc(-c4ccccc4)n3)C2)cc1 (stereo unspecified) | 30 µg/mL (≈ 74.8 µM) |

Tested on: Aspergillus niger
Assay: Antimicrobial activity against Aspergillus niger MTCC 281 at 50 ug/ml after 24 hrs by agar disc diffusion method
Format: functional
Settings: MTCC 281, 24 h, read-out: DIZ

| Compound | zone of inhibition at 50 µg/mL |
| --- | --- |
| Clc1ccc(C2=NN(c3ccccc3)C(c3noc(-c4ccccc4)n3)C2)cc1 (stereo unspecified) | 9 mm |

Tested on: Shigella flexneri
Assay: Antimicrobial activity against Shigella flexneri MTCC 1457 at 100 ug/ml after 24 hrs by agar disc diffusion method
Format: functional
Settings: MTCC 1457, 24 h, read-out: DIZ

| Compound | zone of inhibition at 100 µg/mL |
| --- | --- |
| Clc1ccc(C2=NN(c3ccccc3)C(c3noc(-c4ccccc4)n3)C2)cc1 (stereo unspecified) | 8 mm |

Tested on: Aspergillus niger
Assay: Antimicrobial activity against Aspergillus niger MTCC 281 at 100 ug/ml after 24 hrs by agar disc diffusion method
Format: functional
Settings: MTCC 281, 24 h, read-out: DIZ

| Compound | zone of inhibition at 100 µg/mL |
| --- | --- |
| Clc1ccc(C2=NN(c3ccccc3)C(c3noc(-c4ccccc4)n3)C2)cc1 (stereo unspecified) | 18 mm |

Tested on: Radical scavenging activity
Assay: Antioxidant activity assessed as DPPH free radical scavenging activity at 100 ug/ml after 20 mins
Format: functional
Settings: not given

| Compound | Activity |
| --- | --- |
| Clc1ccc(C2=NN(c3ccccc3)C(c3noc(-c4ccccc4)n3)C2)cc1 (stereo unspecified) | 68% |

Tested on: not listed separately
Assay: Antioxidant activity assessed as reducing power of ferric ion at 100 ug/ml after 20 mins
Format: functional
Set-up: scale not given: the % may be the effect or the level left
Settings: not given

| Compound | Activity |
| --- | --- |
| Clc1ccc(C2=NN(c3ccccc3)C(c3noc(-c4ccccc4)n3)C2)cc1 (stereo unspecified) | 62% |

Tested on: Staphylococcus aureus
Assay: Antimicrobial activity against Staphylococcus aureus MTCC 96 at 50 ug/ml after 24 hrs by agar disc diffusion method
Format: functional
Settings: MTCC 96, 24 h, read-out: DIZ

| Compound | zone of inhibition at 50 µg/mL |
| --- | --- |
| Clc1ccc(C2=NN(c3ccccc3)C(c3noc(-c4ccccc4)n3)C2)cc1 (stereo unspecified) | 3 mm |

Tested on: not listed separately
Assay: Antioxidant activity assessed as reducing power of ferric ion at 50 ug/ml after 20 mins
Format: functional
Set-up: scale not given: the % may be the effect or the level left
Settings: not given

| Compound | Activity |
| --- | --- |
| Clc1ccc(C2=NN(c3ccccc3)C(c3noc(-c4ccccc4)n3)C2)cc1 (stereo unspecified) | 26% |

Tested on: Escherichia coli
Assay: Antimicrobial activity against Escherichia coli MTCC 724
Format: functional
Settings: not given

| Compound | MIC |
| --- | --- |
| Clc1ccc(C2=NN(c3ccccc3)C(c3noc(-c4ccccc4)n3)C2)cc1 (stereo unspecified) | 45 µg/mL (≈ 112 µM) |

Tested on: Radical scavenging activity
Assay: Antioxidant activity assessed as DPPH free radical scavenging activity at 50 ug/ml after 20 mins
Format: functional
Settings: not given

| Compound | Activity |
| --- | --- |
| Clc1ccc(C2=NN(c3ccccc3)C(c3noc(-c4ccccc4)n3)C2)cc1 (stereo unspecified) | 40% |

Tested on: not listed separately
Assay: Antiinflammatory activity against heat-induced albumin denaturation at […] preincubated for 15 mins before heat induction by UV-vis spectrophotometer analysis
Format: functional
Settings: not given

| Compound | inhibition |
| --- | --- |
| Clc1ccc(C2=NN(c3ccccc3)C(c3noc(-c4ccccc4)n3)C2)cc1 (stereo unspecified) | 60% |

Tested on: Aspergillus flavus
Assay: Antimicrobial activity against Aspergillus flavus MTCC 873 at 50 ug/ml after 24 hrs by agar disc diffusion method
Format: functional
Settings: MTCC 873, 24 h, read-out: DIZ

| Compound | zone of inhibition at 50 µg/mL |
| --- | --- |
| Clc1ccc(C2=NN(c3ccccc3)C(c3noc(-c4ccccc4)n3)C2)cc1 (stereo unspecified) | 12 mm |

Tested on: not listed separately
Assay: Antioxidant activity assessed as reducing power of ferric ion at 10 ug/ml after 20 mins
Format: functional
Set-up: scale not given: the % may be the effect or the level left
Settings: not given

| Compound | Activity |
| --- | --- |
| Clc1ccc(C2=NN(c3ccccc3)C(c3noc(-c4ccccc4)n3)C2)cc1 (stereo unspecified) | 13% |

Tested on: Bacillus cereus
Assay: Antimicrobial activity against Bacillus cereus MTCC 8372 at 50 ug/ml after 24 hrs by agar disc diffusion method
Format: functional
Settings: MTCC 8372, 24 h, read-out: DIZ

| Compound | zone of inhibition at 50 µg/mL |
| --- | --- |
| Clc1ccc(C2=NN(c3ccccc3)C(c3noc(-c4ccccc4)n3)C2)cc1 (stereo unspecified) | 5 mm |

Tested on: not listed separately
Assay: Antioxidant activity against ferric chloride-induced lipid peroxidation using egg lecithin at 50 ug/ml after 1 hr
Format: functional
Settings: not given

| Compound | inhibition |
| --- | --- |
| Clc1ccc(C2=NN(c3ccccc3)C(c3noc(-c4ccccc4)n3)C2)cc1 (stereo unspecified) | 44% |

Tested on: Shigella flexneri
Assay: Antimicrobial activity against Shigella flexneri MTCC 1457
Format: functional
Settings: not given

| Compound | MIC |
| --- | --- |
| Clc1ccc(C2=NN(c3ccccc3)C(c3noc(-c4ccccc4)n3)C2)cc1 (stereo unspecified) | 25 µg/mL (≈ 62.4 µM) |

Tested on: Aspergillus flavus
Assay: Antimicrobial activity against Aspergillus flavus MTCC 873 at 100 ug/ml after 24 hrs by agar disc diffusion method
Format: functional
Settings: MTCC 873, 24 h, read-out: DIZ

| Compound | zone of inhibition at 100 µg/mL |
| --- | --- |
| Clc1ccc(C2=NN(c3ccccc3)C(c3noc(-c4ccccc4)n3)C2)cc1 (stereo unspecified) | 18 mm |

Tested on: Klebsiella pneumoniae
Assay: Antimicrobial activity against Klebsiella pneumoniae MTCC 3384
Format: functional
Settings: not given

| Compound | MIC |
| --- | --- |
| Clc1ccc(C2=NN(c3ccccc3)C(c3noc(-c4ccccc4)n3)C2)cc1 (stereo unspecified) | 25 µg/mL (≈ 62.4 µM) |

Tested on: Radical scavenging activity
Assay: Antioxidant activity assessed as DPPH free radical scavenging activity at 10 ug/ml after 20 mins
Format: functional
Settings: not given

| Compound | Activity |
| --- | --- |
| Clc1ccc(C2=NN(c3ccccc3)C(c3noc(-c4ccccc4)n3)C2)cc1 (stereo unspecified) | 23% |

Tested on: not listed separately
Assay: Antioxidant activity against ferric chloride-induced lipid peroxidation using egg lecithin at 10 ug/ml after 1 hr
Format: functional
Settings: not given

| Compound | inhibition |
| --- | --- |
| Clc1ccc(C2=NN(c3ccccc3)C(c3noc(-c4ccccc4)n3)C2)cc1 (stereo unspecified) | 31% |

Tested on: Staphylococcus aureus
Assay: Antimicrobial activity against Staphylococcus aureus MTCC 96
Format: functional
Settings: not given

| Compound | MIC |
| --- | --- |
| Clc1ccc(C2=NN(c3ccccc3)C(c3noc(-c4ccccc4)n3)C2)cc1 (stereo unspecified) | 50 µg/mL (≈ 125 µM) |

Tested on: Shigella flexneri
Assay: Antimicrobial activity against Shigella flexneri MTCC 1457 at 50 ug/ml after 24 hrs by agar disc diffusion method
Format: functional
Settings: MTCC 1457, 24 h, read-out: DIZ

| Compound | zone of inhibition at 50 µg/mL |
| --- | --- |
| Clc1ccc(C2=NN(c3ccccc3)C(c3noc(-c4ccccc4)n3)C2)cc1 (stereo unspecified) | 6 mm |

Tested on: Aspergillus flavus
Assay: Antimicrobial activity against Aspergillus flavus MTCC 873
Format: functional
Settings: not given

| Compound | MIC |
| --- | --- |
| Clc1ccc(C2=NN(c3ccccc3)C(c3noc(-c4ccccc4)n3)C2)cc1 (stereo unspecified) | 10 µg/mL (≈ 24.9 µM) |

Tested on: Klebsiella pneumoniae
Assay: Antimicrobial activity against Klebsiella pneumoniae MTCC 3384 at 50 ug/ml after 24 hrs by agar disc diffusion method
Format: functional
Settings: MTCC 3384, 24 h, read-out: DIZ

| Compound | zone of inhibition at 50 µg/mL |
| --- | --- |
| Clc1ccc(C2=NN(c3ccccc3)C(c3noc(-c4ccccc4)n3)C2)cc1 (stereo unspecified) | 6 mm |

Tested on: Staphylococcus aureus
Assay: Antimicrobial activity against Staphylococcus aureus MTCC 96 at 100 ug/ml after 24 hrs by agar disc diffusion method
Format: functional
Settings: MTCC 96, 24 h, read-out: DIZ

| Compound | zone of inhibition at 100 µg/mL |
| --- | --- |
| Clc1ccc(C2=NN(c3ccccc3)C(c3noc(-c4ccccc4)n3)C2)cc1 (stereo unspecified) | 11 mm |

Tested on: Bacillus cereus
Assay: Antimicrobial activity against Bacillus cereus MTCC 8372 at 100 ug/ml after 24 hrs by agar disc diffusion method
Format: functional
Settings: MTCC 8372, 24 h, read-out: DIZ

| Compound | zone of inhibition at 100 µg/mL |
| --- | --- |
| Clc1ccc(C2=NN(c3ccccc3)C(c3noc(-c4ccccc4)n3)C2)cc1 (stereo unspecified) | 8 mm |

Tested on: not listed separately
Assay: Antioxidant activity against ferric chloride-induced lipid peroxidation using egg lecithin at 100 ug/ml after 1 hr
Format: functional
Settings: not given

| Compound | inhibition |
| --- | --- |
| Clc1ccc(C2=NN(c3ccccc3)C(c3noc(-c4ccccc4)n3)C2)cc1 (stereo unspecified) | 71% |

Tested on: Klebsiella pneumoniae
Assay: Antimicrobial activity against Klebsiella pneumoniae MTCC 3384 at 100 ug/ml after 24 hrs by agar disc diffusion method
Format: functional
Settings: MTCC 3384, 24 h, read-out: DIZ

| Compound | zone of inhibition at 100 µg/mL |
| --- | --- |
| Clc1ccc(C2=NN(c3ccccc3)C(c3noc(-c4ccccc4)n3)C2)cc1 (stereo unspecified) | 8 mm |
